Results: patent US20210069143A1, “LOW-ALCOHOL ANTIMICROBIAL COMPOSITION AND USE THEREOF” (Zurex Pharma, Inc., priority 2017, published 2021)

Legend:
[1] = Gamma radiation (25-40 kGy) and 5-month storage stability of composition components in HDPE bottles; type: physicochemical; settings: for Concentration % Change, T = 0 vs. T = 5 Months / % Change (Unexposed vs. Exposed) / % LC, Exposed / % LC, Unexposed / % IPA, Exposed / % IPA, Unexposed: HDPE bottle
Procedure: An antimicrobial composition comprising isopropyl alcohol, citric acid, methyl paraben, propyl paraben, and methylene blue in HDPE bottles was exposed to 25-40 kGy radiation, and the amount of each component detected in the solution before and after radiation was tested. The testing was repeated after 5 months of storage. The results are presented in Tables 1 and 2, below, wherein “exposed” indicates the samples exposed to gamma radiation and “unexposed” indicates the samples that were not exposed to gamma radiation.

[2] = test system: tested microorganisms; test: Antimicrobial effect of components individually and together at various dilutions; type: cell-based; settings: against most tested microorganisms
Procedure: The antimicrobial effect of various components of the composition of Example 1 were tested individually and together at various dilutions. The results are presented in FIG. 1A-1I, wherein shaded boxes indicate no significant response (<3 log10 reduction).

[3] = T = 0, exposed to 25-40 kGy gamma radiation
[4] = T = 0, not exposed to gamma radiation
[5] = T = 5 months, exposed to 25-40 kGy gamma radiation
[6] = T = 5 months, not exposed to gamma radiation

Compound | Concentration % Change, T = 0 vs. T = 5 Months ([1]; Exposed to gamma radiation) [%] | % Change (Unexposed vs. Exposed) ([1]; T = 0) [%] | % LC, Exposed [1, 3] [% LC] | % LC, Unexposed [1, 4] [% LC] | % Change (Unexposed vs. Exposed) ([1]; T = 5 months) [%] | % LC, Exposed [1, 5] [% LC] | % LC, Unexposed [1, 6] [% LC] | Concentration % Change, T = 0 vs. T = 5 Months ([1]; Unexposed) [%] | change in amount of component upon gamma radiation ([1]; 25-40 kGy, HDPE bottles) | % IPA, Exposed [1, 3] [%] | % IPA, Unexposed [1, 4] [%] | % IPA, Exposed [1, 5] [%] | % IPA, Unexposed [1, 6] [%] | antimicrobial effect, alone ([2]; 25% v/v strength solution) | share of component in solution degraded by gamma radiation ([1]; 25-40 kGy, HDPE bottles, accompanied by a color change) | antimicrobial effect, alone ([2]; all tested concentrations)
CCCOC(=O)c1ccc(O)cc1 [Propylparaben, propyl-para-hydroxybenzoate] | 0.4 | 0 | 74.9 | 74.9 | −0.1 | 75.2 | 75.3 | 0.5 | – | – | – | – | – | – | – | –
CC(C)O [IPA, isopropyl alcohol] | 0.7 | 1.2 | – | – | −0.1 | – | – | 1.6 | negligible | 68.6 | 68.1 | 69.1 | 69.2 | little to no effect | – | –
O=C(O)CC(O)(CC(=O)O)C(=O)O [Citric Acid, citric acid] | −4.0 | 1.1 | 97.4 | 96.3 | 0.4 | 93.5 | 93.1 | −3.3 | negligible | – | – | – | – | – | – | –
CN(C)c1ccc2nc3ccc(=[N+](C)C)cc-3sc2c1 [Methylene Blue, methylene blue] | – | −57.4 | 44.9 | 105.5 | −49.4 | 47.3 | 93.4 | – | – | – | – | – | – | – | approximately 50% | little to no effect
O=C(O)CC(O)(CC(=O)O)C(=O)O [citrate] | – | – | – | – | – | – | – | – | – | – | – | – | – | – | – | little to no effect
COC(=O)c1ccc(O)cc1 [Methylparaben, methyl-para-hydroxybenzoate] | 0.7 | −0.4 | 74.5 | 74.8 | −0.3 | 75.0 | 75.2 | 0.5 | – | – | – | – | – | – | – | –
